{
  "source": "paper PMC7995829",
  "about": "(ACS chemical biology, 2020)",
  "key": {"BglX [1]": {"biological_target": "T1, BglX (Pseudomonas aeruginosa, UniProt Q9I311)", "assay": "inhibition assay", "type": "biochemical"}, "BglX [2]": {"biological_target": "T1, BglX", "assay": "inhibition assay", "type": "biochemical", "details": "nonsubstrate, weak inhibitor"}},
  "note": "Where two headings read alike, the source gives them in different places.",
  "data": [
    {"compound": "OC[C@H]1NC[C@H](O)[C@@H](O)[C@@H]1O", "note": "[NOJ, 1-deoxynojirimycin]", "values": [
      {"measurement": "Ki", "setting": "BglX [1]", "result": "4.4 ± 0.5", "unit": "mM"}
    ]},
    {"compound": "OC[C@H]1O[C@@H](O[C@H]2[C@H](O)[C@@H](O)C(O)O[C@@H]2CO)[C@H](O)[C@@H](O)[C@@H]1O", "note": "(stereo partly shown) [cellobiose]", "values": [
      {"measurement": "Ki", "setting": "BglX [2]", "result": "> 50", "unit": "mM"}
    ]},
    {"compound": "OC[C@H]1O[C@@H](O[C@H]2[C@H](O)[C@@H](O)C(O)O[C@@H]2CO)[C@H](O)[C@@H](O)[C@H]1O", "note": "(stereo partly shown) [lactose]", "values": [
      {"measurement": "Ki", "setting": "BglX [2]", "result": "> 50", "unit": "mM"}
    ]},
    {"compound": "OC1OC[C@@H](O[C@@H]2OC[C@@H](O[C@@H]3OC[C@@H](O)[C@H](O)[C@H]3O)[C@H](O)[C@H]2O)[C@H](O)[C@H]1O", "note": "(stereo partly shown) [xylotriose]", "values": [
      {"measurement": "Ki", "setting": "BglX [2]", "result": "> 50", "unit": "mM"}
    ]}
  ]
}
